Experimental data published in patent publication US10799495B2, “Aaptamine alkaloid derivatives and synthesis method and application thereof” (RENJI HOSPITAL, SHANGHAI JIAO TONG UNIVERSITY SCHOOL OF …, priority 2017, dated 2020).
Converted amounts (≈) assume the structure as drawn. Where two headings read alike, the source gives them in different places.

Tests used:
Type in all cases: cell-based
[1] = system: human lung cancer stem cell PC9-Oct4; experiment: In vitro anti-lung cancer stem cell test (CCK-8 cell viability), PC9-Oct4; details: read-out: Half effective inhibitory concentration IC50 against tumor cells
Experimental: (§1) In vitro anti-lung cancer stem cell test is carried out on the compounds AAP-1-6 of the present invention, and the lung cancer stem cell lines used are as follows:
(§2) Human lung cancer cell PC9 is purchased from ATCC with ATCC number 32727.
(§3) In addition, Oct4-GFP and Nanog-GFP are highly expressed by lentivirus transfection.
(§4) The original cell culture medium for Human lung cancer stem cells PC9-Nanog and PC9-Oct4 is discarded, 3 mL of PBS is added to rinse the cells twice; 500 μL of 0.25% trypsin is then added for digestion for 3 minutes at 37° C.; and 3 mL of a complete medium is added to terminate the digestion. The cells are pipetted gently with a pipette to make a single cell suspension; the single cell suspension is transferred to a 15 mL centrifuge tube and centrifuged at 800 rpm for 4 minutes; the supernatant is discarded, 6 mL of a complete medium is added to the centrifuge tube, and mixed by pipetting; counting is carried out to prepare […] single cell suspension; the suspension is added to a 96-well plate, 90 μL per well, (wells at the outer ring are not added with the suspension), and finally each well has 3000 cells; and the 96-well plate is incubated for 24 hours in a 37° C., 5% CO2 incubator.
(§5) 1 mg of each of the compounds AAP-1, AAP-2, AAP-3, AAP-4, AAP-5, and AAP-6 of the present invention is prepared into a 10 mM stock solution by using DMSO, and stored in a refrigerator with a temperature of 4° C. Thereafter, the stock solution is diluted with a medium to a 10 μM test solution. The final concentration is 10 μM in a 96-well plate, and the test solution is diluted three folds and added to the plate. Finally, the concentrations of the test solutions of the compounds of the present invention added to the plate are 10 μM, 3.3 μM, 1.1 μM, and 0.33 μM, respectively. The 96-well plate added with the compounds is incubated for 72 hours in a 37° C., 5% CO2 incubator. 72 hours later, 10 μL of CCK-8 solution is added to each well. 40 minutes to 60 minutes later, the absorbance at 450 nm, i.e., the OD value, is measured with a microplate reader. Cell viability is calculated after measuring the OD value of each group of cells. Cell viability (%)=(OD value of the treated group−OD value of the blank group)/(OD value of the blank control group−OD value of the blank group)×100%
(§6) The blank control group is not added with the compounds of the present invention, and the other steps are the same.
(§7) Meanwhile, the positive control drugs Cis-platinum (Shanghai Boliang Biotechnology Co., Ltd.) and Aaptamine (Reference: Enrique L. Larghi, Maria L. Bohn, Teodoro S. Kaufman, Aaptamine and related products. Their isolation, chemical syntheses, and biological activity, Tetrahedron 2009, 65 (22), 4257-4282 synthesis) are used as control groups for in vitro anti-tumor activity test, and the treatment method herein is the same as that for the compounds of the present invention.

[2] = system: Trichophyton mentaqrophytes; experiment: In vitro antifungal drug sensitivity test (microdilution method), Trichophyton mentaqrophytes; details: for MIC: Trichophyton, read-out: Antifungal activity MIC
From the text: (§8) A microdilution method (Pierce C G, Uppuluri P, Tristan A R, et al. A simple and reproducible 96-well plate-based method for the formation of fungal biofilms and its application to antifungal susceptibility testing [J]. Nat Protoc, 2008, 3 (9): 1494-1500.) is adopted, and its experimental procedure refers to the M38-A2 and M27-A2 solutions (Espinel-Ingroff A, Fothergill A, Fuller J, et al. Wild-type MIC distributions and epidemiological cutoff values for caspofungin and Aspergillus Spp. for the CLSI broth microdilution method (M38-A2 document) [J]. Antimicrobl Agents Chemother, 2011, 55 (6): 2855-2859.). Three tested strains (Candida albicans, Trichophyton mentaqrophytes and Trichophyton rubrum) are used as indicator bacteria to carry out in vitro antifungal drug sensitivity screening experiment for the compounds AAP-1-AAP6.
(§9) Control drugs: ketoconazole (purchased from Shanghai Boliang Biotechnology Co., Ltd.), Aaptamine (same as Embodiment 2).

[3] = system: Trichophyton rubrum; experiment: In vitro antifungal drug sensitivity test (microdilution method), Trichophyton rubrum; details: for MIC: read-out: Antifungal activity MIC
From the text: as §8, §9

[4] = system: Candida albicans; experiment: In vitro antifungal drug sensitivity test (microdilution method), Candida albicans; details: for MIC: read-out: Antifungal activity MIC
From the text: as §8, §9

[5] = system: human lung cancer stem cell PC9-Nanog; experiment: In vitro anti-lung cancer stem cell test (CCK-8 cell viability), PC9-Nanog; details: read-out: Half effective inhibitory concentration IC50 against tumor cells
Experimental: as §1, §2, §3, §4, §5, §6, §7

[6] = Homo sapiens, 72 h, PC9-Oct4 cells, 72 hours incubation, CCK-8
[7] = Trichophyton mentaqrophytes, microdilution
[8] = Homo sapiens, 72 h, PC9-Nanog cells, 72 hours incubation, CCK-8
[9] = PC9-Oct4 cells, 72 hours incubation, CCK-8
[10] = PC9-Nanog cells, 72 hours incubation, CCK-8

Structure (SMILES): COc1cc2ccnc3c2c(c1OC)NC=C3c1ccccc1 [AAP-1, 8,9-dimethoxy-3-phenyl-1H-benzo[de][1,6]naphthyridine]
- IC50 [1, 6]: 1.04 ± 0.11 µM
- MIC [2, 7]: 25 µg/mL (≈ 82.1 µM)
- MIC ([3]; microdilution): 12.5 µg/mL (≈ 41.1 µM)
- MIC ([4]; microdilution): > 30 µg/mL
- IC50 [5, 8]: 1.24 ± 0.02 µM

Structure (SMILES): COc1c(OC)c2c3c(nccc3c1-c1ccccc1)C=CN2 [AAP-2, 8,9-dimethoxy-7-phenyl-1H-benzo[de][1,6]naphthyridine]
- IC50 [1, 6]: 7.22 ± 0.04 µM
- MIC [2, 7]: 25 µg/mL (≈ 82.1 µM)
- MIC ([3]; microdilution): 25 µg/mL (≈ 82.1 µM)
- MIC ([4]; microdilution): > 30 µg/mL
- IC50 [5, 8]: 6.82 ± 0.16 µM

Structure (SMILES): COc1c(OC)c2c3c(nccc3c1-c1cccc(C(C)C)c1)C(c1cccc(C(C)C)c1)=CN2 [AAP-6, 3,7-bis(3-isopropyphenyl)-8,9dimethoxy-1H-benzo[de][1,6] naphthyridine]
- IC50 [1, 9]: 3.82 ± 0.15 µM
- Antifungal activity MIC [2, 7]: >30 µg/mL
- Antifungal activity MIC ([3]; microdilution): >30 µg/mL
- Antifungal activity MIC ([4]; microdilution): 25 µg/mL
- IC50 [5, 10]: 4.82 ± 0.12 µM

Structure (SMILES): COc1cc2ccnc3c2c(c1OC)NC=C3 [Aaptamine]
- IC50 ([1]; Homo sapiens, 72 h): 8.44 ± 0.1 µM
- MIC [2]: > 30 µg/mL
- Antifungal activity MIC ([3]; microdilution): >30 µg/mL
- MIC [3]: > 30 µg/mL
- MIC [4]: > 30 µg/mL
- IC50 ([5]; Homo sapiens, 72 h): 10.1 ± 0.17 µM

Structure (SMILES): N.N.[Cl][Pt][Cl] [Cis-platinum, reference compound]
- IC50 [1, 9]: 3.24 ± 0.05 µM
- IC50 [5, 10]: 4.53 ± 0.03 µM

Structure (SMILES): CC(=O)N1CCN(c2ccc(OCC3COC(Cn4ccnc4)(c4ccc(Cl)cc4Cl)O3)cc2)CC1 (centres unmarked) [Ketoconazole, ketoconazole, reference compound]
- MIC [2, 7]: 8 µg/mL (≈ 15.1 µM)
- MIC ([3]; microdilution): 8 µg/mL (≈ 15.1 µM)
- MIC ([4]; microdilution): 8 µg/mL (≈ 15.1 µM)
